Results on one compound are retold here after patent US8691511B2, “Hydroxylated 1,2,4-oxadiazole benzoic acid compounds, compositions thereof and their use in bioassays” (PTC Therapeutics, Inc., priority 2006, dated 2014).

Test [1] deals with luciferase reporter construct containing a UGA premature termination codon. The experiment in a line: cell-based luciferase reporter assay (nonsense suppression). The settings on record: 293T Human Embryonic Kidney cells stably transfected with UGA luciferase reporter; internal standard. The text has this: (§1) Two assays were developed for use in high throughput screens to identify small molecules that promote nonsense suppression. Each assay utilized luciferase because it is a functional reporter gene assay (light is only produced if the protein is functional) and it is extremely sensitive (Light intensity is proportional to luciferase concentration in the nM range). The first assay is a cell-based luciferase reporter assay and the second is a biochemical assay consisting of rabbit reticulocyte lysate and a nonsense-containing luciferase reporter mRNA. In the cell-based assay, a luciferase reporter construct containing a UGA premature termination codon was stably transfected in 293T Human Embryonic Kidney cells. In the biochemical assay, mRNA containing a UGA premature termination codon was used as a reporter in an in vitro translation reaction using rabbit reticulocyte lysate supplemented with tRNA, hemin, creatine kinase, amino acids, KOAc, Mg(OAc)2, and creatine phosphate. […] Synthetic mRNA was prepared in vitro using the T7 promoter and the MegaScript in vitro transcription kit (Ambion).

Test [2] concerns mRNA containing a UGA premature termination codon. Nature of the test: biochemical in vitro translation assay, rabbit reticulocyte lysate with nonsense-containing luciferase reporter mRNA. The following applies: in vitro translation reaction using rabbit reticulocyte lysate, internal standard.
Source text: as §1

As to `CC(C)c1ccc(N2CC(=O)N(c3cccc(C(=O)O)c3)C2=O)cc1` [3-[3-(4-Isopropyl-phenyl)-2,5-dioxo-imidazolidin-1-yl]-benzoic acid], the luciferase activity entry in test [1] and in test [2] was “increased luciferase activity” each time.
